Assay results from ChEMBL document CHEMBL1201862, “PubChem BioAssay data set” (2004).
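1) Cells in 96-well plates. 2) Compound, 48 h, 5 concentrations. 3) Linear interpolation between surrounding doses. 4) Unreached endpoint = highest concentration. The concentration for 50% growth inhibition is given as GI50.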 The source made the active and inactive calls. No stated cut-off is given here; in the data, active = GI50 up to about 1.1 µM and inactive = higher.

Tests used:
Test in all cases: NCI-60 cell line screen, 48 h
[1] = tested on: RXF 393
[2] = tested on: LOX IMVI
[3] = tested on: OVCAR-3
[4] = tested on: SF-539
[5] = tested on: M14
[6] = tested on: OVCAR-5
[7] = tested on: MOLT-4
[8] = tested on: ACHN
[9] = tested on: SR
[10] = tested on: NCI-H226
[11] = tested on: SN12C
[12] = tested on: RPMI-8226
[13] = tested on: IGROV-1
[14] = tested on: NCI-H522
[15] = tested on: HOP-92
[16] = tested on: NCI-H460
[17] = tested on: K562
[18] = tested on: DLD-1
[19] = tested on: UACC-257
[20] = tested on: M19-MEL
[21] = tested on: U-251
[22] = tested on: OVCAR-8
[23] = tested on: SNB-75
[24] = tested on: HOP-18
[25] = tested on: CCRF-CEM
[26] = tested on: HL-60
[27] = tested on: HCT-116
[28] = tested on: SNB-19
[29] = tested on: SF-295
[30] = tested on: KM-20L2
[31] = tested on: DMS-273
[32] = tested on: COLO 205
[33] = tested on: SK-MEL-2
[34] = tested on: EKVX
[35] = tested on: SF-268
[36] = tested on: HCT-15
[37] = tested on: Malme-3M
[38] = tested on: HCC 2998
[39] = tested on: TK-10
[40] = tested on: UO-31
[41] = tested on: A549
[42] = tested on: OVCAR-4
[43] = tested on: KM12
[44] = tested on: HT-29
[45] = tested on: SK-MEL-28
[46] = tested on: SW-620
[47] = tested on: SK-MEL-5
[48] = tested on: NCI-H23
[49] = tested on: XF498
[50] = tested on: 786-0
[51] = tested on: RXF 631
[52] = tested on: LXFL 529
[53] = tested on: UACC-62
[54] = tested on: HOP-62
[55] = tested on: DMS-114
[56] = tested on: SK-OV-3

Measured: GI50

CCCC/C=C/C1Cc2ccccc2CN1S(=O)(=O)c1ccc(C)cc1 (stereo unspecified)
8.39 µM: [36]
inactive: [1] 10.8 µM | [2] 8.34 µM | [3] 9.57 µM | [4] 15.7 µM | [5] 11.4 µM | [6] 12.5 µM | [7] 3.97 µM | [8] 5.24 µM | [9] 2.77 µM | [10] 10 µM | [11] 10.6 µM | [12] 2.07 µM | [13] 12.3 µM | [14] 4.31 µM | [15] 2.15 µM | [16] 12.7 µM | [17] 3.64 µM | [18] 7.71 µM | [19] 4.25 µM | [20] 6.01 µM | [21] 11.2 µM | [22] 11.3 µM | [23] 13.3 µM | [24] 83 µM | [25] 4.9 µM | [26] 1.84 µM | [27] 1.6 µM | [28] 24.2 µM | [29] 13.9 µM | [30] 11.6 µM | [31] 7.71 µM | [32] 7.29 µM | [33] 14.3 µM | [34] 13.7 µM | [35] 10.2 µM | [37] 6.67 µM | [38] 12.1 µM | [39] 20.9 µM | [40] 5.6 µM | [41] 5.33 µM | [42] 5.85 µM | [43] 9.91 µM | [44] 7.8 µM | [45] 10.5 µM | [46] 11.2 µM | [47] 3.28 µM | [48] 4.27 µM | [49] 17 µM | [50] 12.3 µM | [51] 5.78 µM | [52] 5.42 µM | [53] 12.7 µM | [54] 31.5 µM | [55] 3.03 µM | [56] 26.6 µM
